In PubChem BioAssay (NCI):
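A five-concentration, 48-hour dose response in 96-well plates underlies each endpoint, interpolated linearly between surrounding concentrations. At the GI50, growth is halved. TGI marks complete inhibition of growth.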

Tests used:
Experiment in all cases: growth of human tumour cells (NCI), 48 h
ACHN renal = tested on: ACHN renal
U251 CNS = tested on: U251 CNS
UACC-257 melanoma = tested on: UACC-257 melanoma
HCT-15 colon = tested on: HCT-15 colon
T-47D breast = tested on: T-47D breast
MDA-MB-231 breast = tested on: MDA-MB-231 breast
OVCAR-4 ovarian = tested on: OVCAR-4 ovarian
OVCAR-3 ovarian = tested on: OVCAR-3 ovarian
SK-MEL-5 melanoma = tested on: SK-MEL-5 melanoma
TK-10 renal = tested on: TK-10 renal

Row | SMILES | GI50 (ACHN renal) [µM] | TGI (ACHN renal) [µM] | GI50 (U251 CNS) [µM] | TGI (U251 CNS) [µM] | GI50 (UACC-257 melanoma) [µM] | TGI (UACC-257 melanoma) [µM] | GI50 (HCT-15 colon) [µM] | TGI (HCT-15 colon) [µM] | GI50 (T-47D breast) [µM] | TGI (T-47D breast) [µM] | GI50 (MDA-MB-231 breast) [µM] | TGI (MDA-MB-231 breast) [µM] | GI50 (OVCAR-4 ovarian) [µM] | TGI (OVCAR-4 ovarian) [µM] | GI50 (OVCAR-3 ovarian) [µM] | TGI (OVCAR-3 ovarian) [µM] | GI50 (SK-MEL-5 melanoma) [µM] | TGI (SK-MEL-5 melanoma) [µM] | GI50 (TK-10 renal) [µM] | TGI (TK-10 renal) [µM]
1 | CC(=O)n1c(-c2ccc(Cl)c(Cl)c2)cn(-c2ccc(Cl)cc2)c1=O | 27.8 | > 100 | 16.3 | 37.5 | 22.4 | 66.8 | 63.7 | > 100 | 19.3 | 49.5 | 17.6 | 62.6 | 20 | 57.7 | 51.2 | > 100 | 32.2 | > 100 | 18.7 | 38
2 | COc1ccc(CN=C(N)N=C(N)N)cc1OC | > 1000 | > 1000 | 398 | > 1000 | 448 | > 1000 | > 1000 | > 1000 | 907 | > 1000 | > 1000 | > 1000 | 215 | > 1000 | 612 | > 1000 | 223 | > 1000 | > 1000 | > 1000
3 | O=[N+]([O-])c1cc2c(ccc3occc32)o1 | 0.561 | 8.03 | 3.56 | 16.4 | 1.77 | 3.88 | 1.96 | 5.97 | 41.3 | > 100 | 1.84 | 5.83 | 27.2 | > 100 | 3.77 | 15.8 | 1.17 | 2.54 | 5.46 | 31.5
4 | Cc1c(C(N)=O)sc2c1c(=O)n(Cc1ccccc1)c1nnc(S(=O)(=O)CC(=O)Nc3ccc(Cl)cc3)n21 | 4.63 | 20.6 | 1.99 | 4.25 | 2.68 | 7.88 | 38.6 | > 100 | 3.89 | 14.3 | 4.24 | 18.5 | 1.93 | 5.47 | 5.27 | 18 | 6.02 | 20.7 | 4.38 | 19.2
5 | CCCC(CCC)C(=O)OCC1(CO)C/C(=C\c2ccc(C(F)(F)F)cc2)C(=O)O1 (stereo not given) | 10.5 | 22.6 | 7.61 | 22.5 | 18.1 | 33.4 | 12.8 | 26.9 | 14.7 | 29.4 | 7.66 | 22.9 | 17.9 | 34.4 | 19.8 | 36.1 | 0.948 | 19.6 | 5.62 | 20.3
6 | CC1=NN(c2ccccc2)C(=O)C1N=Nc1ccc(S(N)(=O)=O)cc1 (stereo not given) | – | > 100 | – | > 100 | – | > 100 | – | > 100 | – | > 100 | – | > 100 | – | > 100 | – | > 100 | – | > 100 | – | > 100
7 | Nc1ccccc1C#C/C=C\C#Cc1ccccc1F | 13.5 | 40 | 6.44 | 20.7 | 15.7 | 47.5 | 5.17 | 19.7 | 8.05 | > 100 | 10.1 | 25.4 | 24.4 | > 100 | 2.84 | 14.7 | 2.73 | 12.3 | 6.42 | 25.6
8 | COc1ccc2c(c1)C=C1CSCC3=Cc4cc(OC)ccc4OC13O2 | 0.863 | > 100 | 0.427 | > 100 | > 100 | > 100 | 0.359 | > 100 | 0.418 | > 100 | 0.568 | > 100 | 1.54 | > 100 | 0.295 | 0.884 | 0.41 | > 100 | > 100 | > 100
9 | COc1cc2c(cc1OCCCCCn1c3ccccc3c3ccccc31)N=C[C@@H]1CCCN1C2=O | 1.74 | 3.34 | 1.59 | 3.19 | 2.29 | 5.85 | 1.67 | 3.48 | 2.79 | 9.24 | 1.73 | 3.69 | 3.09 | 12.6 | 1.88 | 3.57 | 1.73 | 3.15 | 2.25 | 4.84
10 | CC(C)=CCc1cc(C2COc3cc4c(c(O)c3C2=O)C=CC(C)(C)O4)c(O)cc1O (stereo not given) | – | 32.4 | – | 35.7 | – | 27.4 | – | 26.9 | – | 27.2 | – | 27.5 | – | 24.2 | – | 27.3 | – | 25 | – | 31.7
11 | O=CN1N=C(c2ccc(Nc3ccnc4cc(Cl)ccc34)cc2)CC1c1ccc(Cl)cc1 (stereo not given) | 1 | > 100 | 0.511 | > 100 | > 100 | > 100 | 0.58 | > 100 | 1.56 | > 100 | 1.43 | > 100 | 6.48 | > 100 | 0.352 | > 100 | 0.809 | > 100 | 9.57 | > 100
12 | CN(C)C(=S)SCC(N)=O | – | > 100 | – | > 100 | – | > 100 | – | > 100 | – | > 100 | – | > 100 | – | > 100 | – | > 100 | – | > 100 | – | > 100
